Reference: patent US10689359B2, “Crystals of quinazoline derivative and preparation method therefor” (Xuanzhu Pharma Co., Ltd., priority 2015, dated 2020)

Columns and labels:
[1] = Evaluation on pharmacokinetics in SD rats, intragastric administration; format: in vivo; details: 5 mg/kg
Method: An amorphous form of a compound of Formula (I), the preparation method of which could be found in the particular Examples as disclosed in the international patent application (Publication No. WO 2012027960 A1).
Test animal: SD rats, male, weighed 190-250 g, 6 rats for each crystal form, purchased from Beijing Vital River Laboratory Animal Technology Co., Ltd.
Administration route: intragastric administration, at an administration dose of 5 mg/kg, and an administration volume of 10 mL/kg.
Blood collection: whole blood (about 100 μL) was collected from tail vein 10 min, 30 min, 1 h, 2 h, 4 h, 6 h, 8 h, and 24 h after administration, and added to K2EDTA-containing anticoagulation tubes. The whole blood sample was centrifuged for 6 min at 4° C., 8000 rpm in a high speed centrifuge, and plasma was separated. Plasma needed to be prepared within 30 min after blood collection, and stored at −80° C. in a refrigerator.
Plasma sample analysis: the plasma samples were analyzed by protein precipitation: to plasma (20 μL), an internal standard Gefitinib (200 μL, 50 ng/mL acetonitrile solution) was added; the resultant mixture was vortexed at 500 rpm for 5 min, and centrifuged at 4000 rpm for 20 min in a high speed centrifuge; to the supernatant (100 μL), water (100 μL) was added; the resultant mixture was mixed homogeneously under vortexing and analyzed by LC-MS/MS for blood concentration.
Calculation for PK parameters: PK parameters were calculated by using Pharsight Phoenix 6.2 software.

[2] = Study on stability of Crystal form I, II and III (influencing factors; character, moisture content, relevant substances by HPLC, XRPD); format: physicochemical
Method: The samples were tested for character, relevant substances, moisture content, XRPD pattern, etc. […] The samples were tested for relevant substances, content, character, moisture content, XRPD pattern, etc. During the study, the uncovered experimental samples were kept in cultured dishes in the air. […] During the study, the uncovered experimental samples were kept in cultured dishes in the air. […] With respect to relevant substances, in accordance with High Performance Liquid Chromatography in Appendix V D in Pharmacopoeia of the People's Republic of China (2010), the samples were determined by area normalization method. Instrument: High Performance Liquid Chromatographic Instrument (Agilent 1200/1260 series) Chromatographic column: chromatographic column using octylsilane chemically bonded silica as filler (HC-C8, 4.6×250 mm, 5 μm) Column temperature: 30° C. Detection wavelength: 230 nm Mobile phase: mobile phase consisting of 0.03 mol/L diammonium hydrogen phosphate/0.03 mol/L sodium perchlorate solution-acetonitrile, and reversed-phase gradient elution was employed. Flow rate: 1.0 mL/min Injection volume: 10 μL Method for determining moisture content: the moisture content was determined in accordance with First Method for Determining Moisture Content B (Coulometric Titration) in Appendix VIII M in Pharmacopoeia of the People's Republic of China (2010).

[3] = Comparison of stability between crystal forms and amorphous form, 60° C. uncovered, relevant substances by HPLC; format: physicochemical
Method: Instrument: High Performance Liquid Chromatographic Instrument (Agilent 1260 series) Chromatographic column: chromatographic column using octylsilane chemically bonded silica as filler (HC-C8, 4.6×250 mm, 5 μm) Column temperature: 30° C. Detection wavelength: 230 nm Mobile phase: Mobile phase consisting of 0.06 mol/L sodium dihydrogen phosphate/0.06 mol/L sodium perchlorate solution-acetonitrile, and reversed-phase gradient elution was employed. Flow rate: 1.0 mL/min Injection volume: 10 μL

[4] = system: erlotinib-resistant H1975 cell line; details: cited from earlier work
EGFR = EGFR (Homo sapiens, UniProt P00533); details: cited from earlier work
Sequence of EGFR (P00533 25-1210): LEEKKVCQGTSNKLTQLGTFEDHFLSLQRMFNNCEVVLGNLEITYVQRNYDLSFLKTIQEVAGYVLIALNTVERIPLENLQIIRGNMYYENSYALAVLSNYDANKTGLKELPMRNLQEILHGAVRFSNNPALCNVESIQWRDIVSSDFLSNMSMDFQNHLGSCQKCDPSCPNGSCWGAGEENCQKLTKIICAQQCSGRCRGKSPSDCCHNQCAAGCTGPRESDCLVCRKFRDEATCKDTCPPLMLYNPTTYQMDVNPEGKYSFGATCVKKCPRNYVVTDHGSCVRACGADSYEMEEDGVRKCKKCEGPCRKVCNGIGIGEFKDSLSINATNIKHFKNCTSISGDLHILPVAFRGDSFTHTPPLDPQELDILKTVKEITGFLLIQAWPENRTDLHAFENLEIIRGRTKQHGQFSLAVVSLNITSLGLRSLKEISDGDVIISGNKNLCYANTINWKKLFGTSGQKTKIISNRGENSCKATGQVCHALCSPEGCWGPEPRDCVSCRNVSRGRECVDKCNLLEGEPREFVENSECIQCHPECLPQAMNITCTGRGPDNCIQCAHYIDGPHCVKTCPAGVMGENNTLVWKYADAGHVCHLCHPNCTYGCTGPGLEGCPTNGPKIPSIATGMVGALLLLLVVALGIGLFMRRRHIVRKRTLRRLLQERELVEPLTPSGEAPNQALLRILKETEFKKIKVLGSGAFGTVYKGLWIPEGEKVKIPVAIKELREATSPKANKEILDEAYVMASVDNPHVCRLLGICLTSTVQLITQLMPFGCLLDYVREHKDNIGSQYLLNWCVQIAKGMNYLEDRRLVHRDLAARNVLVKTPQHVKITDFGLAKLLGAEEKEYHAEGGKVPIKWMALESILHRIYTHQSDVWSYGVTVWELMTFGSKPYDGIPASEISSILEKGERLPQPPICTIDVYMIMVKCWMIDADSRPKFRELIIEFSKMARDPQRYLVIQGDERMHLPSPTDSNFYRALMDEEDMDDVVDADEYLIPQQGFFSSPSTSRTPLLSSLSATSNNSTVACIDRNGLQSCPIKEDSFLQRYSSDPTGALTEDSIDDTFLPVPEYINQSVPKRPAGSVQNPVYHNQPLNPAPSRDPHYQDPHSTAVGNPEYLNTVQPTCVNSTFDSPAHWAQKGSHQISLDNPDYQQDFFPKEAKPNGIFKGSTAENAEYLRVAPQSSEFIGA

HER2/4 = details: cited from earlier work
[5] = 10 days, 40° C./RH75% uncovered

SMILES: C=CC(=O)Nc1cc2c(Nc3ccc(F)c(Cl)c3)ncnc2cc1OCC1CC2(CCN(C)CC2)C1 [Crystal form III, N-(4-((3-chloro-4-fluorophenyl)amino)-7-((7-methyl-7-azaspiro[3.5]nonan-2-yl)methoxy)quinazolin-6-yl)acrylamide]
- Pharmacokinetic properties (conclusion) [1]: good pharmacokinetic properties
- AUC0-t ([1]; suspension in water): 1324 ng·h/mL
- AUCinf ([1]; suspension in water): 1340 ng·h/mL
- Cmax (maximum blood concentration) ([1]; suspension in water): 134 ng/mL
- T1/2 (drug elimination half-life) ([1]; suspension in water): 3.35 h
- Tmax (time to maximum blood concentration) ([1]; suspension in water): 4 h
- Character ([2]; 0 day): light yellow powder
- Moisture content ([2]; 0 day): 3.5%
- Total relevant substances ([2]; 0 day): 0.66%
- Increase of total relevant substances ([2]; 60° C. uncovered, 5 days vs Day 0): 0.28%
- Increase of total relevant substances ([2]; 60° C. uncovered, 10 days vs Day 0): 0.44%
- Character ([2]; 5 days, 40° C./RH75% covered): light yellow powder
- Moisture content ([2]; 5 days, 40° C./RH75% covered): 3.6%
- Total relevant substances ([2]; 5 days, 40° C./RH75% covered): 0.57%
- Character ([2]; 5 days, 40° C./RH75% uncovered): light yellow powder
- Moisture content ([2]; 5 days, 40° C./RH75% uncovered): 3.9%
- Total relevant substances ([2]; 5 days, 40° C./RH75% uncovered): 0.63%
- Character ([2]; 5 days, 60° C. covered): light yellow powder
- Moisture content ([2]; 5 days, 60° C. covered): 3.6%
- Total relevant substances ([2]; 5 days, 60° C. covered): 0.60%
- Character ([2]; 5 days, 60° C. uncovered): light yellow powder
- Moisture content ([2]; 5 days, 60° C. uncovered): 3.5%
- Total relevant substances ([2]; 5 days, 60° C. uncovered): 0.94%
- Character ([2]; 5 days, RH-75%): light yellow powder
- Moisture content ([2]; 5 days, RH-75%): 4.0%
- Total relevant substances ([2]; 5 days, RH-75%): 0.62%
- Character ([2]; 5 days, RH-92.5%): light yellow powder
- Moisture content ([2]; 5 days, RH-92.5%): 4.0%
- Total relevant substances ([2]; 5 days, RH-92.5%): 0.58%
- Character ([2]; 5 days, visible light): light yellow powder
- Moisture content ([2]; 5 days, visible light): 3.7%
- Total relevant substances ([2]; 5 days, visible light): 0.68%
- Character ([2]; 10 days, 40° C./RH75% covered): light yellow powder
- Moisture content ([2]; 10 days, 40° C./RH75% covered): 3.6%
- Total relevant substances ([2]; 10 days, 40° C./RH75% covered): 0.59%
- Character [2, 5]: light yellow powder
- Moisture content [2, 5]: 3.9%
- Total relevant substances [2, 5]: 0.62%
- Character ([2]; 10 days, 60° C. covered): light yellow powder
- Moisture content ([2]; 10 days, 60° C. covered): 3.5%
- Total relevant substances ([2]; 10 days, 60° C. covered): 0.64%
- Character ([2]; 10 days, 60° C. uncovered): light yellow powder
- Moisture content ([2]; 10 days, 60° C. uncovered): 3.4%
- Total relevant substances ([2]; 10 days, 60° C. uncovered): 1.1%
- Character ([2]; 10 days, RH-75%): light yellow powder
- Moisture content ([2]; 10 days, RH-75%): 3.8%
- Total relevant substances ([2]; 10 days, RH-75%): 0.56%
- Character ([2]; 10 days, RH-92.5%): light yellow powder
- Moisture content ([2]; 10 days, RH-92.5%): 4.3%
- Total relevant substances ([2]; 10 days, RH-92.5%): 0.60%
- Character ([2]; 10 days, UV light): light yellow powder
- Moisture content ([2]; 10 days, UV light): 3.8%
- Total relevant substances ([2]; 10 days, UV light): 0.70%
- Stability of the samples (conclusion) ([2]; influencing factor conditions (high temperature, high moisture, light), 10 days): good stability
- Total relevant substances ([3]; 0 day): 0.81%
- Change in total relevant substances (conclusion) ([3]; 60° C. uncovered, 5 days and 10 days): little increase in total relevant substances
- Total relevant substances ([3]; 60° C. uncovered-5 days): 1.1%
- Total relevant substances ([3]; 60° C. uncovered-10 days): 2.0%

SMILES: C=CC(=O)Nc1cc2c(Nc3ccc(F)c(Cl)c3)ncnc2cc1OCC1CC2(CCN(C)CC2)C1 [Formula (I), N-(4-((3-chloro-4-fluorophenyl)amino)-7-((7-methyl-7-azaspiro[3.5]nonan-2-yl)methoxy)quinazolin-6-yl)acrylamide]
- Inhibition of erlotinib-resistant H1975 cell line [4]: significantly inhibitory effect
- Inhibition of EGFR (EGFR): effectively inhibit
- Inhibition of HER2/4 (HER2/4): inhibitory effect
